Measurements published in PubChem BioAssay (NCI).
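Exposure lasted 48 hours, with cells grown in 96-well plates and compounds tested at five concentrations. TGI marks complete inhibition of growth.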

Assays:
Assay in all cases: DTP human tumour cell line panel, 48 h
SK-OV-3 ovarian = system: SK-OV-3 ovarian
MOLT-4 leukemia = system: MOLT-4 leukemia
SK-MEL-28 melanoma = system: SK-MEL-28 melanoma
MALME-3M melanoma = system: MALME-3M melanoma
UACC-257 melanoma = system: UACC-257 melanoma
K-562 leukemia = system: K-562 leukemia
UO-31 renal = system: UO-31 renal
SNB-75 CNS = system: SNB-75 CNS
COLO 205 colon = system: COLO 205 colon
KM12 colon = system: KM12 colon

Structure (SMILES) | TGI (SK-OV-3 ovarian) | TGI (MOLT-4 leukemia) | TGI (SK-MEL-28 melanoma) | TGI (MALME-3M melanoma) | TGI (UACC-257 melanoma) | TGI (K-562 leukemia) | TGI (UO-31 renal) | TGI (SNB-75 CNS) | TGI (COLO 205 colon) | TGI (KM12 colon)
N#CC(Cc1ccccc1)N(CCC1=CCCCC1)Cc1ccccc1 (configuration not stated) | > 100 µM | 90.6 µM | > 100 µM | > 100 µM | > 100 µM | > 100 µM | > 100 µM | > 100 µM | 66.4 µM | > 100 µM
CC(C)=CCC/C(C)=C/CC/C(C)=C/CC/C(C)=C/CC/C(C)=C/CC/C(C)=C/CC/C(C)=C/CC/C(C)=C/CC/C(C)=C/CO | > 100 µM | > 100 µM | > 100 µM | > 100 µM | > 100 µM | > 100 µM | > 100 µM | > 100 µM | > 100 µM | > 100 µM
COC(=O)c1ccc(N=NN(C)COc2ccc(Br)cc2)cc1 | > 100 µM | > 92.6 µM | > 100 µM | > 100 µM | > 100 µM | > 100 µM | > 100 µM | > 100 µM | > 100 µM | > 100 µM
CS(=O)(=O)c1ccc(N=C/C=C/Nc2ccc(S(C)(=O)=O)cc2)cc1 | > 100 µM | > 100 µM | > 100 µM | > 100 µM | > 100 µM | > 100 µM | > 100 µM | > 100 µM | > 100 µM | > 100 µM
COc1ccccc1C1ON=C(c2ccc([N+](=O)[O-])cc2)N1C12CC3CC(CC(C3)C1)C2 (configuration not stated) | > 100 µM | > 100 µM | > 100 µM | > 100 µM | > 100 µM | > 100 µM | > 100 µM | > 100 µM | > 100 µM | > 100 µM
CC(C)O/N=C/c1cc(NC(=S)OC(C)C)ccc1Cl | 98.3 µM | 48.8 µM | > 91.8 µM | > 100 µM | > 100 µM | > 53.4 µM | > 61.2 µM | 57.2 µM | > 81.3 µM | > 100 µM
CCOC(=O)C1c2[nH]c3ccccc3c2CCN1C(=O)c1ccc(OC)o1 (configuration not stated) | > 10 µM | > 10 µM | > 10 µM | 2.78 µM | > 10 µM | > 10 µM | > 10 µM | > 10 µM | > 10 µM | > 10 µM
CSc1nc(NC2OC(COC(C)=O)C(OC(C)=O)C(OC(C)=O)C2OC(C)=O)c2c(n1)OCC2=O (configuration not stated) | > 100 µM | > 100 µM | > 100 µM | > 100 µM | > 100 µM | > 100 µM | > 100 µM | > 100 µM | > 100 µM | > 100 µM
COc1cc(C2c3cc4c(cc3OC(NNS(=O)(=O)c3ccc(C)cc3)C2C)OCO4)cc(OC)c1O (configuration not stated) | 79.2 µM | 49.5 µM | > 100 µM | 25 µM | 38.4 µM | 45.7 µM | – | 22.7 µM | 43.5 µM | 36.5 µM
Cc1ccc(/C(O)=C/C(=O)C(=O)NC23CC4CC(CC(C4)C2)C3)cc1 | > 10 µM | > 10 µM | > 10 µM | > 10 µM | > 10 µM | > 10 µM | – | > 10 µM | > 10 µM | > 10 µM
CCOC(=O)C(Cc1ccc(OC(=O)c2ccc(OC)cc2)cc1)NC(=O)C(F)(F)F (configuration not stated) | > 100 µM | > 100 µM | – | > 100 µM | > 100 µM | > 100 µM | > 100 µM | 46.5 µM | > 100 µM | > 100 µM
